Experimental data: PubChem BioAssay AID248 (DTP/NCI, 2004)
“And” between values parts separate entries of the source, which are not always exact repeats. Equal values may be shown once. Toxic doses and inconclusive results are not listed. Cut-off read from the data, not from the text of the source: active = T/C of 150% or more; inactive = T/C below 125%.

System: L1210 leukemia ip in BDF1 mice, survival T/C
Assay: NCI In Vivo Anticancer Drug Screen. Data for tumor model L1210 Leukemia (intraperitoneal) in B6D2F1 (BDF1) mice
Details: endpoint: mean survival time, higher = longer survival
Procedure, shortened: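 Antitumor effect is assessed in tumor-bearing animals. Survival in the compound arm is compared with a vehicle-dosed control arm and expressed as their quotient.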

[1] = dose: 100.0 mg/kg/injection, schedule: Q01DX009 (ip), vehicle: saline with Tween-80
[2] = dose: 100.0 mg/kg/injection, schedule: Q04DX002 (ip), vehicle: saline with Tween-80
[3] = dose: 200.0 mg/kg/injection, schedule: Q01DX009 (ip), vehicle: saline with Tween-80
[4] = dose: 200.0 mg/kg/injection, schedule: Q04DX002 (ip), vehicle: saline with Tween-80
[5] = dose: 400.0 mg/kg/injection, schedule: Q01DX009 (ip), vehicle: saline with Tween-80
[6] = dose: 100.0 mg/kg/injection, schedule: Q01DX009 (ip), vehicle: saline
[7] = dose: 200.0 mg/kg/injection, schedule: Q01DX009 (ip), vehicle: saline
[8] = dose: 100.0 mg/kg/injection, schedule: Q01DX001 (ip), vehicle: saline
[9] = dose: 200.0 mg/kg/injection, schedule: Q01DX001 (ip), vehicle: saline
[10] = dose: 100.0 mg/kg/injection, schedule: Q01DX001 (ip), vehicle: carboxymethylcellulose (CMC)
[11] = dose: 200.0 mg/kg/injection, schedule: Q01DX001 (ip), vehicle: carboxymethylcellulose (CMC)
[12] = dose: 400.0 mg/kg/injection, schedule: Q01DX001 (ip), vehicle: carboxymethylcellulose (CMC)
[13] = dose: 100.0 mg/kg/injection, schedule: Q04DX003 (ip), vehicle: Klucel (hydroxypropylcellulose) (HPC)
[14] = dose: 200.0 mg/kg/injection, schedule: Q04DX003 (ip), vehicle: Klucel (hydroxypropylcellulose) (HPC)
[15] = dose: 400.0 mg/kg/injection, schedule: Q01DX001 (ip), vehicle: saline
[16] = dose: 400.0 mg/kg/injection, schedule: Q04DX003 (ip), vehicle: Klucel (hydroxypropylcellulose) (HPC)
[17] = dose: 50.0 mg/kg/injection, schedule: Q01DX009 (ip), vehicle: Klucel (hydroxypropylcellulose) (HPC)
[18] = dose: 100.0 mg/kg/injection, schedule: Q01DX009 (ip), vehicle: Klucel (hydroxypropylcellulose) (HPC)
[19] = dose: 200.0 mg/kg/injection, schedule: Q01DX009 (ip), vehicle: Klucel (hydroxypropylcellulose) (HPC)
[20] = dose: 400.0 mg/kg/injection, schedule: Q01DX009 (ip), vehicle: Klucel (hydroxypropylcellulose) (HPC)
[21] = dose: 50.0 mg/kg/injection, schedule: Q01DX009 (ip), vehicle: saline

Measured: T/C

COc1cc([N+](=O)[O-])ccc1NC(=O)N(C)Cc1ccccc1
inactive: dose: 50.0 mg/kg/injection, schedule: Q01DX001 (ip), vehicle: saline with Tween-80 95 % of control | dose: 100.0 mg/kg/injection, schedule: Q01DX001 (ip), vehicle: saline with Tween-80 93 % of control | [1] 96 % of control | [2] 92 % of control and 93 % of control | dose: 100.0 mg/kg/injection, schedule: Q04DX003 (ip), vehicle: saline with Tween-80 116 % of control | [3] 98 % of control | [4] 94 % of control and 102 % of control | dose: 200.0 mg/kg/injection, schedule: Q04DX003 (ip), vehicle: saline with Tween-80 98 % of control | dose: 400.0 mg/kg/injection, schedule: Q01DX001 (ip), vehicle: saline with Tween-80 87 % of control and 88 % of control | [5] 94 % of control | dose: 400.0 mg/kg/injection, schedule: Q04DX002 (ip), vehicle: saline with Tween-80 93 % of control and 101 % of control | dose: 400.0 mg/kg/injection, schedule: Q04DX003 (ip), vehicle: saline with Tween-80 101 % of control

O=c1cnn(C2OC(CO)C(O)C2O)c(=S)[nH]1 (centres undefined)
inactive: dose: 100.0 mg/kg/injection, schedule: Q01DX005 (ip), vehicle: saline 113 % of control | [6] 124 % of control | dose: 200.0 mg/kg/injection, schedule: Q01DX005 (ip), vehicle: saline 108 % of control | [7] 123 % of control | dose: 400.0 mg/kg/injection, schedule: Q01DX009 (ip), vehicle: saline 117 % of control

CN(Cc1ccccc1)c1ccc(SC#N)cc1
inactive: [8] 98 % of control | [9] 104 % of control

[CH3][Sb]1([CH3])([CH3])[O]S(=O)(=O)[O]1
inactive: dose: 75.0 mg/kg/injection, schedule: Q01DX001 (ip), vehicle: saline 97 % of control | dose: 150.0 mg/kg/injection, schedule: Q01DX001 (ip), vehicle: saline 102 % of control | dose: 300.0 mg/kg/injection, schedule: Q01DX001 (ip), vehicle: saline 105 % of control

Cc1ccc(S(=O)(=O)OC2CCC(OS(=O)(=O)c3ccc(C)cc3)C3CCCCC23)cc1 (centres undefined)
inactive: [10] 88 % of control | [11] 90 % of control | [12] 88 % of control

CN=C(N)NCCCCCCCCNC(N)=NC
inactive: dose: 5.0 mg/kg/injection, schedule: Q01DX001 (ip), vehicle: saline 95 % of control | dose: 10.0 mg/kg/injection, schedule: Q01DX001 (ip), vehicle: saline 101 % of control | dose: 20.0 mg/kg/injection, schedule: Q01DX001 (ip), vehicle: saline 101 % of control

COc1ccc(/C=C(/C)[N+](=O)[O-])cc1OC
inactive: dose: 50.0 mg/kg/injection, schedule: Q01DX001 (ip), vehicle: Klucel (hydroxypropylcellulose) (HPC) 98 % of control | dose: 50.0 mg/kg/injection, schedule: Q01DX009 (ip), vehicle: saline with Tween-80 91 % of control | dose: 100.0 mg/kg/injection, schedule: Q01DX001 (ip), vehicle: Klucel (hydroxypropylcellulose) (HPC) 94 % of control | [8] 93 % of control | [1] 115 % of control | [13] 97 % of control | dose: 200.0 mg/kg/injection, schedule: Q01DX001 (ip), vehicle: Klucel (hydroxypropylcellulose) (HPC) 103 % of control | [3] 100 % of control | [14] 102 % of control | [15] 98 % of control | [16] 97 % of control

CC(=O)Nn1cnc2ccccc2c1=O
inactive: [17] 98 % of control | [18] 98 % of control | [19] 98 % of control

COc1ccc(Cl)cc1NC(=O)C(Br)C(Br)C(=O)O (centres undefined)
inactive: dose: 100.0 mg/kg/injection, schedule: Q01DX009 (ip), vehicle: other 96 % of control | dose: 200.0 mg/kg/injection, schedule: Q01DX009 (ip), vehicle: other 100 % of control

CCCCOP(=O)(NC1CCCCC1)OCCCC
inactive: dose: 50.0 mg/kg/injection, schedule: Q04DX002 (ip), vehicle: saline with Tween-80 107 % of control | [2] 96 % of control | [4] 104 % of control

CCC(CO)N=Cc1ccccc1O.CCC(CO)N=Cc1ccccc1O.[Ni] (centres undefined)
inactive: dose: 9.5 mg/kg/injection, schedule: Q01DX001 (ip), vehicle: other 102 % of control | dose: 19.0 mg/kg/injection, schedule: Q01DX001 (ip), vehicle: other 102 % of control | dose: 38.0 mg/kg/injection, schedule: Q01DX001 (ip), vehicle: other 94 % of control | dose: 75.0 mg/kg/injection, schedule: Q01DX001 (ip), vehicle: other 111 % of control

CC(C)(C)NC(=O)Nc1cccc(O)c1
inactive: [18] 95 % of control | [19] 100 % of control | [20] 104 % of control

CC(C)OP(=O)(NC12CC3CC(CC(C3)C1)C2)OC(C)C
inactive: [18] 103 % of control | [13] 95 % of control | [19] 100 % of control | [14] 96 % of control | [20] 90 % of control | [16] 100 % of control

COC(=O)C(N)CCCCNC(c1ccccc1)(c1ccccc1)c1ccccc1 (centres undefined)
inactive: [21] 107 % of control | [6] 86 % of control

Nc1sc(=S)nc2[nH]ncc12
inactive: [17] 90 % of control | [18] 96 % of control | [13] 98 % of control | [19] 93 % of control | [14] 95 % of control | [16] 95 % of control

O=C(c1ccc([N+](=O)[O-])cc1)C1NC1c1ccccc1 (centres undefined)
inactive: dose: 50.0 mg/kg/injection, schedule: Q01DX001 (ip), vehicle: carboxymethylcellulose (CMC) 91 % of control | [10] 97 % of control | [11] 100 % of control | [12] 91 % of control

COc1c(O)c2c(=O)cc3c4c5c(cc(=O)c6c(O)c(OC)c(CC(C)O)c(c(c1CC(C)O)c24)c65)OCO3 (centres undefined)
inactive: dose: 100.0 mg/kg/injection, schedule: Q04DX002 (ip), vehicle: Klucel (hydroxypropylcellulose) (HPC) 109 % of control | dose: 200.0 mg/kg/injection, schedule: Q04DX002 (ip), vehicle: Klucel (hydroxypropylcellulose) (HPC) 102 % of control | dose: 400.0 mg/kg/injection, schedule: Q04DX002 (ip), vehicle: Klucel (hydroxypropylcellulose) (HPC) 102 % of control

CC1(C)OC(COS(C)(=O)=O)C2OC(C)(C)OC(COS(C)(=O)=O)C2O1 (centres undefined)
inactive: [10] 104 % of control | [11] 101 % of control | [12] 104 % of control

CCCCCCCCNC(C(=O)c1ccc(Cl)cc1)c1ccc(Cl)cc1 (centres undefined)
inactive: [21] 92 % of control | [6] 91 % of control | dose: 100.0 mg/kg/injection, schedule: Q04DX003 (ip), vehicle: saline 98 % of control | [7] 97 % of control | dose: 200.0 mg/kg/injection, schedule: Q04DX003 (ip), vehicle: saline 102 % of control | dose: 400.0 mg/kg/injection, schedule: Q04DX003 (ip), vehicle: saline 90 % of control

O=C(COc1ccc(Cl)cc1)Nc1cccc([N+](=O)[O-])c1
inactive: [1] 96 % of control | [3] 92 % of control | [5] 90 % of control

CCCCCCCC[Si](C)(C)C
inactive: [8] 100 % of control | [9] 97 % of control | [15] 115 % of control

COc1cccc(/C=c2\[nH]c(=O)/c(=C/c3cccc(OC)c3OC)[nH]c2=O)c1OC
inactive: [18] 94 % of control | [13] 88 % of control | [19] 87 % of control | [14] 91 % of control | [20] 96 % of control | [16] 91 % of control

CC(=O)C1CCc2c(O)c3c(c(O)c2C1)C(=O)c1ccccc1C3=O (centres undefined)
inactive: dose: 87.5 mg/kg/injection, schedule: Q04DX003 (ip), vehicle: saline with Tween-80 94 % of control | dose: 175.0 mg/kg/injection, schedule: Q04DX003 (ip), vehicle: saline with Tween-80 91 % of control | dose: 350.0 mg/kg/injection, schedule: Q04DX003 (ip), vehicle: saline with Tween-80 94 % of control

CCCCOC(=O)CC(C(=O)OCCCC)S(=O)(=O)O (centres undefined)
inactive: [8] 96 % of control | [9] 104 % of control | [15] 101 % of control

CCC/C(=N/OC(=O)N(C)C)c1ccccc1
inactive: [10] 97 % of control | [11] 98 % of control | [12] 101 % of control

CC(=O)Nc1nc(Cl)c2ncn(C3OC(COC(=O)c4ccccc4)CC3OC(=O)c3ccccc3)c2n1 (centres undefined)
inactive: dose: 50.0 mg/kg/injection, schedule: Q01DX001 (ip), vehicle: saline 93 % of control | [8] 95 % of control | [9] 101 % of control | [15] 93 % of control
